# Active and inactive are the calls of the source. The rule behind the calls is not given here.
# Legend:
# [1] = target: Mitotic checkpoint serine/threonine-protein kinase BUB1 beta (Homo sapiens) (UniProt O60566); assay: Induction of BubR1 hyperphosphorylation in human HeLa cells by Western blot analysis; assay type: cell-based
# MDA-MB-231 [2] = assay: Anticlonogenic activity against human MDA-MB-231 cells incubated for 48 hrs followed by replacement with fresh medium measured after 7 to 10 days by gentian violet staining based assay; assay type: functional, cell-based
# MDA-MB-231 [3] = assay: Antiproliferative activity against human MDA-MB-231 cells after 48 hrs by MTT assay; assay type: functional, cell-based; conditions: MDA-MB-231, 48 h
# SK-OV-3 = assay: Antiproliferative activity against human SKOV3 cells after 48 hrs by MTT assay; conditions: SK-OV-3, 48 h
# HeLa [4] = assay: Antiproliferative activity against human HeLa cells after 48 hrs by MTT assay; assay type: functional, cell-based
# [5] = Growth inhibition of HOSEC at 1 uM after 48 hrs by MTT assay relative to control; conditions: human, HOSEC cells; read-out: GI
# HeLa [6] = assay: Inhibition of alpha-tubulin polymerization in human HeLa cells assessed as increase in ratio of supernatant faction to pellet fraction at 500 nM after 6 hrs by Western blot analysis; assay type: cell-based
# Homo sapiens = species on record: Homo sapiens; assay: Disruption of microtubule structure in human SKOV3 cells assessed as decrease in density at 100 nM after 24 hrs by DAPI staining based immunofluorescence assay; assay type: cell-based
# Mus musculus [7] = assay: Anti-vascular activity in Balb/c nude mouse assessed as inhibition of VEGF-induced capillary blood vessel formation using sc injected matrigel plug supplemented with 100 nM test compound mixed with VEGF and measured after 1 week by matrigel plug assay; assay type: functional, organism-based
# Mus musculus [8] = assay: Anti-vascular activity in Balb/c nude mouse assessed as inhibition of VEGF-induced capillary blood vessel formation by measuring reduction in hemoglobin level using sc injected matrigel plug supplemented with 100 nM test compound mixed with VEGF and measured after 1 week by matrigel plug assay; assay type: functional, organism-based
# HeLa [9] = assay: Cell cycle arrest in human HeLa cells assessed as accumulation at G2/M-phase at 25 to 50 nM after 24 hrs by propidium iodide staining based flow cytometry; assay type: functional
# HeLa [10] = assay: Cell cycle arrest in human HeLa cells assessed as accumulation at G2/M-phase at 50 nM after 24 hrs by propidium iodide staining based flow cytometry; assay type: functional
# HeLa [11] = assay: Upregulation of Cyclin-B1 protein expression in human HeLa cells at 50 to 200 nM by Western blot analysis; assay type: functional, cell-based
# HeLa [12] = assay: Induction of histone-H3 phosphorylation in human HeLa cells by Western blot analysis; assay type: cell-based
# HeLa [13] = assay: Induction of apoptosis in human HeLa cells assessed as early apoptotic cells at 50 nM after 48 hrs by Annexin V-FITC/propidium iodide staining based flow cytometry (reference value: 0.7%); assay type: functional
# HeLa [14] = assay: Induction of apoptosis in human HeLa cells assessed as late apoptotic cells at 50 nM after 48 hrs by Annexin V-FITC/propidium iodide staining based flow cytometry (reference value: 2%); assay type: functional
# HeLa [15] = assay: Induction of apoptosis in human HeLa cells assessed as necrotic cells at 50 nM after 48 hrs by Annexin V-FITC/propidium iodide staining based flow cytometry (reference value: 0.9%); assay type: functional
# HeLa [16] = assay: Induction of apoptosis in human HeLa cells assessed as early apoptotic cells at 100 nM after 48 hrs by Annexin V-FITC/propidium iodide staining based flow cytometry (reference value: 0.7%); assay type: functional
# HeLa [17] = assay: Induction of apoptosis in human HeLa cells assessed as late apoptotic cells at 100 nM after 48 hrs by Annexin V-FITC/propidium iodide staining based flow cytometry (reference value: 2%); assay type: functional
# HeLa [18] = assay: Induction of apoptosis in human HeLa cells assessed as late apoptotic cells at 200 nM after 48 hrs by Annexin V-FITC/propidium iodide staining based flow cytometry (reference value: 2%); assay type: functional
# HeLa [19] = assay: Induction of apoptosis in human HeLa cells assessed as necrotic cells at 200 nM after 48 hrs by Annexin V-FITC/propidium iodide staining based flow cytometry (reference value: 0.9%); assay type: functional
# HeLa [20] = assay: Induction of apoptosis in human HeLa cells after 48 hrs by Annexin V-FITC/propidium iodide staining based flow cytometry; assay type: functional, cell-based
# HeLa [21] = assay: Upregulation of Bax protein expression in human HeLa cells after 48 hrs by Western blot analysis; assay type: functional, cell-based
# HeLa [22] = assay: Upregulation of p53 protein expression in human HeLa cells after 48 hrs by Western blot analysis; assay type: functional, cell-based
# HeLa [23] = assay: Upregulation of cleaved PARP1 protein expression in human HeLa cells after 48 hrs by Western blot analysis; assay type: functional, cell-based
# [24] = Acute toxicity in ICR mouse assessed as survival rate at 275 mg/kg, ip measured on day 14 (reference value: 100%); assay type: organism-based; conditions: in vivo
# [25] = Acute toxicity in ICR mouse assessed as survival rate at 125 mg/kg, ip measured on day 14 (reference value: 100%); assay type: organism-based; conditions: in vivo
# [26] = Acute toxicity in ICR mouse assessed as survival rate at 100 mg/kg, ip measured on day 14 (reference value: 100%); assay type: organism-based; conditions: in vivo
# [27] = Acute toxicity in ICR mouse assessed as death administered ip measured up to 14 days; assay type: organism-based; conditions: in vivo
# Mus musculus [28] = assay: Acute toxicity in ICR mouse assessed as death at 100 to 125 mg/kg, ip measured after 1 day; assay type: organism-based; conditions: in vivo, 24 h
# Mus musculus [29] = assay: Acute toxicity in ICR mouse assessed as death at 100 mg/kg, ip measured after 2 days; assay type: organism-based; conditions: in vivo, 48 h
# Mus musculus [30] = assay: Acute toxicity in ICR mouse assessed as death at 150 mg/kg, ip measured after 3 days; assay type: organism-based; conditions: in vivo, 72 h
# Mus musculus [31] = assay: Acute toxicity in ICR mouse assessed as death at 100 to 275 mg/kg, ip measured after 5 to 14 days; assay type: organism-based; conditions: in vivo
# A2780 [32] = assay: Antitumor activity against human A2780 cells xenografted in Balb/c nude mouse assessed as tumor volume inhibition at 8 mg/kg, ip once in every 2 days measured up to 14 days relative to control; assay type: functional
# A2780 [33] = assay: Antitumor activity against human A2780 cells xenografted in Balb/c nude mouse assessed as isolated tumor weight inhibition at 8 mg/kg, ip once in every 2 days measured after 14 days; assay type: functional, organism-based
# A2780 [34] = assay: Antitumor activity against human A2780 cells xenografted in Balb/c nude mouse assessed as tumor weight inhibition at 8 mg/kg, ip once in every 2 days measured up to 14 days; assay type: functional, organism-based
# Mus musculus [35] = assay: Toxicity in Balb/c nude mouse xenografted with human A2780 cells assessed as abnormality in liver at 8 mg/kg, ip once in every 2 days measured after 14 days by H and E staining based assay; assay type: organism-based; conditions: in vivo, 336 h
# Mus musculus [36] = assay: Toxicity in Balb/c nude mouse xenografted with human A2780 cells assessed as abnormality in kidney at 8 mg/kg, ip once in every 2 days measured after 14 days by H and E staining based assay; assay type: organism-based; conditions: in vivo, 336 h
# Mus musculus [37] = assay: Toxicity in Balb/c nude mouse xenografted with human A2780 cells assessed as abnormality in spleen at 8 mg/kg, ip once in every 2 days measured after 14 days by H and E staining based assay; assay type: organism-based; conditions: in vivo, 336 h
# A2780 [38] = assay: cells; conditions: Homo sapiens, A2780, 48 h
# Description: Antiproliferative activity against human A2780 cells after 48 hrs by MTT assay
# Sequence of Mitotic checkpoint serine/threonine-protein kinase BUB1 beta (Homo sapiens) (O60566 whole entry): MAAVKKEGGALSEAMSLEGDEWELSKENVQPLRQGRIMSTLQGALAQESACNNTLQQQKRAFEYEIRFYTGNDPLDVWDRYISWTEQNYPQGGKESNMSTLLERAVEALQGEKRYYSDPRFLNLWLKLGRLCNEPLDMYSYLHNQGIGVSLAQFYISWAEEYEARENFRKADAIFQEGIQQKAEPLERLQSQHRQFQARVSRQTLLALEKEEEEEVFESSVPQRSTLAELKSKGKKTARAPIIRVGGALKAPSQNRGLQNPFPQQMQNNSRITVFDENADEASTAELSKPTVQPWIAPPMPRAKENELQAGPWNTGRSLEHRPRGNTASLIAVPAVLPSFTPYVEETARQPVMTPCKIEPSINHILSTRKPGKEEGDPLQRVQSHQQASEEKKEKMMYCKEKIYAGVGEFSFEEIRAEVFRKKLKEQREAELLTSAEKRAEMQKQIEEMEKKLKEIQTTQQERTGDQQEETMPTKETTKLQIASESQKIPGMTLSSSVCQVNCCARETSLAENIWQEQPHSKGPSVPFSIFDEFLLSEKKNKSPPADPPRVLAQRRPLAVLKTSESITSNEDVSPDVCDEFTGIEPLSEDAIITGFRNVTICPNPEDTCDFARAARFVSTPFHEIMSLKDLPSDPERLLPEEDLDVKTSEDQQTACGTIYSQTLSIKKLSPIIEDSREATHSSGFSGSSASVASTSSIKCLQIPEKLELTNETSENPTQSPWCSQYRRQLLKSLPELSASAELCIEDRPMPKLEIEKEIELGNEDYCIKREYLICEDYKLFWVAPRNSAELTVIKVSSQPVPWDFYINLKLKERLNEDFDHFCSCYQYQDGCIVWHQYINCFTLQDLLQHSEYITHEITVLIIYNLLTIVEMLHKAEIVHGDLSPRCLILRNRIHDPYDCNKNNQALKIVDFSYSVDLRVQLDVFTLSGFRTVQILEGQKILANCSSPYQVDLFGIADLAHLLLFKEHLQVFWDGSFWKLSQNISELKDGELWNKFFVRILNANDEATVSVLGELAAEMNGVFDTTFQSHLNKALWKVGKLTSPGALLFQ
smiles,measurement,setting,value
COc1ccc([C@H]2[C@H](C)C(=O)N2c2cc(OC)c(OC)c(OC)c2)cc1O,Activity,[1],Dose-dependent effect
same,Activity,MDA-MB-231 [2],Dose-dependent effect
same,IC50,MDA-MB-231 [3],3 nM
same,IC50,SK-OV-3,3 nM
same,IC50,HeLa [4],1 nM
same,"inhibition at 48 h, 1 µM",[5],< 50%
same,tubulin polymerization inhibition (active/inactive),HeLa [6],Active
same,Activity,Homo sapiens,Active
same,inhibition,Mus musculus [7],Active
same,inhibition,Mus musculus [8],Active
same,Activity,HeLa [9],Active
same,Activity,HeLa [10],100%
same,Activity,HeLa [11],Active
same,Activity,HeLa [12],Dose-dependent effect
same,Activity,HeLa [13],29.3%
same,Activity,HeLa [14],23.4%
same,Activity,HeLa [15],5.3%
same,Activity,HeLa [16],35.2%
same,Activity,HeLa [17],29.9%
same,Activity,HeLa [18],33.8%
same,Activity,HeLa [19],7.2%
same,Activity,HeLa [20],Dose-dependent effect
same,Activity,HeLa [21],Dose-dependent effect
same,Activity,HeLa [22],Dose-dependent effect
same,Activity,HeLa [23],Dose-dependent effect
same,survival at 14 day,[24],10%
same,survival at 14 day,[25],70%
same,survival at 14 day,[26],90%
same,LD50 at 336 h,[27],136 mg/kg
same,Activity,Mus musculus [28],Non-Toxic
same,Activity,Mus musculus [29],Non-Toxic
same,Activity,Mus musculus [30],Non-Toxic
same,Activity,Mus musculus [31],Non-Toxic
same,inhibition in vivo at 8 mg/kg,A2780 [32],76.3%
same,inhibition,A2780 [33],Active
same,inhibition,A2780 [34],Active
same,Activity,Mus musculus [35],Non-Toxic
same,Activity,Mus musculus [36],Non-Toxic
same,Activity,Mus musculus [37],Non-Toxic
same,IC50,A2780 [38],2 nM

# From ChEMBL document CHEMBL4251633, “Design, synthesis, biological evaluation and cocrystal structures with tubulin of chiral β-lactam bridged combretastatin A-4 analogues as potent antitumor agents” (Eur J Med Chem, 2018)
